Columns and labels:
R5.24 = molecular target: T1, R5.24 (Homo sapiens, UniProt Q5T6X5); experiment: Activity assay for R5.24 receptor: stimulus-evoked changes in intracellular calcium in cells expressing R5.24; format: cell-based; conditions: FIG. 1 middle panels, calcium signal
T1 construct: expressed in transfected cells; host or cells: human embryonic kidney (HEK) cells containing Gα16-Gαz and/or Gα15 promiscuous G proteins
T1 sequence (Q5T6X5 19-926): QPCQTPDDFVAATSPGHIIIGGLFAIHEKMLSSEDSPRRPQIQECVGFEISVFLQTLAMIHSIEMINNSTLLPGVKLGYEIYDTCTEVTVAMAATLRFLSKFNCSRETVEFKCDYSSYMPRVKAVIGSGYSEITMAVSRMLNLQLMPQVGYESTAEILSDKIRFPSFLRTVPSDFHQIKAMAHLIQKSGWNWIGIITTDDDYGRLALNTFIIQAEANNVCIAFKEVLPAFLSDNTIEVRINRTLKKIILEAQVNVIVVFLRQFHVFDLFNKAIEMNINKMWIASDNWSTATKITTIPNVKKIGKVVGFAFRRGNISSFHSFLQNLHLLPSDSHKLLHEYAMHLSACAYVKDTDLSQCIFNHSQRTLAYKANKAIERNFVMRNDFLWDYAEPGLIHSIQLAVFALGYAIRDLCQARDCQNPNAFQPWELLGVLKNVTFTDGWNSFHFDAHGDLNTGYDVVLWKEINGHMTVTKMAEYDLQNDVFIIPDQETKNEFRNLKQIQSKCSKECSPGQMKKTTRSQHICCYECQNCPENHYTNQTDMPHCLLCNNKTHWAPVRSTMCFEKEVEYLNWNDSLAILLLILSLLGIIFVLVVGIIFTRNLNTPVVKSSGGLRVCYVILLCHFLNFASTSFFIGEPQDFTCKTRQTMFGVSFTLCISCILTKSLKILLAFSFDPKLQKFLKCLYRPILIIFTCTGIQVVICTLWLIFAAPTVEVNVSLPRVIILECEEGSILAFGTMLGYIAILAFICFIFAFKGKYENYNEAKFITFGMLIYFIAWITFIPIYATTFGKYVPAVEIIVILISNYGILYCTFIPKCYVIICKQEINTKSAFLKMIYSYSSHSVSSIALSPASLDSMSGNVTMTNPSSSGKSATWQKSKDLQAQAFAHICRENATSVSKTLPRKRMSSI
From the text: (§1) Candidate receptors are expressed in human embryonic kidney (HEK) cells containing, e.g., the Gα16-Gαz and/or Gα15 promiscuous G proteins (Offermanns et al., J. Biol. Chem. 270:15175-15180 (1995); Mody et al., Mol. Pharmacol. 57:13-23 (2000)), and assayed for stimulus-evoked changes in intracellular calcium. In this system, receptor activation leads to activation of phospholipase Cβ (PLC-β and release of calcium from internal stores, which can be monitored at the single-cell level using calcium-indicator dyes (Chandrashekar et al., Cell 100:703-711 (2000); Nelson et al., Cell 106:381-390 (2001); Tsien et al., Cell Calcium 6:145-157 (1985)).

[1] = system: cells without the receptor; experiment: Activity assay control: cells without the receptor stimulated with magnesium or manganese; format: cell-based, human; conditions: FIG. 1 right panels
From the text: as §1

Compound	response of cells expressing R5.24 to stimulation (R5.24)	response of cells without the receptor to stimulation [1]
[Mg+2] [magnesium]	respond	do not respond
[Mn+2] [manganese]	respond	do not respond
